# Assay results published in US20050215435A1, “Phenylalanine derivatives as herbicides” (priority 2002, published 2005).
# Columns and labels:
# Assay in all cases: Greenhouse herbicidal action, post-emergence
# Format in all cases: in vivo
# [1] = tested on: Sinapis alba
# Excerpt: (§1) The seeds of the test plants were sown separately for each species. For the post-emergence treatment, the test plants were first grown to a height of from 3 to 15 cm, depending on the plant habit, and only then treated with the active compounds which had been suspended or emulsified in water. The test plants were for this purpose either sown directly and grown in the same containers, or they were first grown separately as seedlings and transplanted into the test containers a few days prior to treatment. […] (active substance). Depending on the species, the plants were kept at 10-25° C. or 20-35° C. The test period extended over from 2 to 4 weeks. During this time, the plants were tended, and their response to the individual treatments was evaluated. Evaluation was carried out using a scale from 0 to 100. 100 means no emergence of the plants, or complete destruction of at least the aerial parts and 0 means no damage, or normal course of growth. The plants used in the greenhouse experiments were of the following species: [table]
# [2] = tested on: Setaria italica
# Excerpt: as §1
# [3] = tested on: Abutilon theophrasti
# Excerpt: as §1
# [4] = tested on: Chenopodium album; details: 1.0 kg of a.s./ha
# Excerpt: as §1
molecule,measurement,setting,value
"CNC(=O)C(NC(=O)c1ccccc1C(F)(F)F)C(C)c1ccccc1F (single isomer, unassigned) [Compound I-32]",control of Sinapis alba,[1]; 0.095 kg of a.s./ha,very good control
same,control of Setaria italica,[2]; 0.095 kg of a.s./ha,very good control
CNC(=O)[C@H](Cc1ccccc1C)NC(=O)c1ccccc1C(F)(F)F [Compound I-19],control of Setaria italica,[2]; 0.5 kg of a.s./ha,very good control
same,control of Abutilon theophrasti,[3]; 0.5 kg of a.s./ha,very good control
CNC(=O)[C@H](Cc1cccc(F)c1)NC(=O)c1cccc(F)c1C(F)(F)F [Compound I-24],control of Sinapis alba,[1]; 0.5 kg of a.s./ha,very good control
same,control of Abutilon theophrasti,[3]; 0.5 kg of a.s./ha,very good control
CNC(=O)[C@H](Cc1cccc(F)c1)NC(=O)c1cc(F)ccc1C(F)(F)F [Compound I-25],control of Sinapis alba,[1]; 0.5 kg of a.s./ha,very good control
same,control of Setaria italica,[2]; 0.5 kg of a.s./ha,very good control
same,control of Abutilon theophrasti,[3]; 0.5 kg of a.s./ha,very good control
CNC(=O)[C@H](Cc1ccccc1C)NC(=O)c1ccc(Cl)c(C(F)F)c1Cl [Compound I-49],control of Sinapis alba,[1]; 1.91 kg of a.s./ha,very good control
same,control of Sinapis alba,[1]; 3.0 kg of a.s./ha,very good control
same,control of Setaria italica,[2]; 1.91 kg of a.s./ha,very good control
same,control of Setaria italica,[2]; 3.0 kg of a.s./ha,very good control
same,control of Abutilon theophrasti,[3]; 1.91 kg of a.s./ha,very good control
same,control of Abutilon theophrasti,[3]; 3.0 kg of a.s./ha,very good control
CNC(=O)[C@H](Cc1ccccc1C)NC(=O)c1ccc(F)cc1C(F)(F)F [Compound I-51],control of Chenopodium album,[4],very good control
same,control of Abutilon theophrasti,[3]; 1.0 kg of a.s./ha,very good control
CNC(=O)[C@H](Cc1ccccc1C)NC(=O)c1cccc(F)c1C(F)(F)F [Compound I-53],control of Sinapis alba,[1]; 0.5 kg of a.s./ha,very good control
same,control of Setaria italica,[2]; 0.5 kg of a.s./ha,very good control
same,control of Abutilon theophrasti,[3]; 0.5 kg of a.s./ha,very good control
CNC(=O)C(NC(=O)c1ccc(F)cc1C(F)(F)F)C(C)c1ccccc1F (stereo not drawn) [II-7],control of Chenopodium album,[4],very good control
same,control of Abutilon theophrasti,[3]; 1.0 kg of a.s./ha,very good control
CNC(=O)C(Cc1ccccc1)NC(=O)c1ccc(F)cc1C(F)(F)F (stereo not drawn) [II-91],control of Sinapis alba,[1]; 2.0 kg of a.s./ha,very good control
same,control of Abutilon theophrasti,[3]; 2.0 kg of a.s./ha,very good control
CNC(=O)C(Cc1ccccc1C)NC(=O)c1ccccc1S(C)(=O)=O (stereo not drawn) [II-111],control of Sinapis alba,[1]; 1.0 kg of a.s./ha,very good control
same,control of Setaria italica,[2]; 1.0 kg of a.s./ha,very good control
same,control of Abutilon theophrasti,[3]; 1.0 kg of a.s./ha,very good control
Nα-(2-trifluoromethyl-4-fluorobenzoyl)-2-(1-methyl-1-(2-fluorophenyl))glycine-N-methylamide [II-15],control of Sinapis alba,[1]; 0.5 kg of a.s./ha,very good control
same,control of Setaria italica,[2]; 0.5 kg of a.s./ha,very good control
same,control of Abutilon theophrasti,[3]; 0.5 kg of a.s./ha,very good control
